Test results taken from patent US20070128217A1 (priority 2003, published 2007).

How the values were obtained:
[1] = test system: antibodies in sera from SARS patients (sera 1a, 1b, 2, 6, 37, 62, London, SARS-yellow, SARS-green); type: binding, human
[2] = test system: control sera (pooled serum of ten healthy LUMC hospital workers; commercial negative donor pooled serum from the Dutch bloodbank); type: binding, human
[3] = test system: rabbit serum obtained by immunizing a rabbit with the SARS-CoV strain Frankfurt 1; type: binding; set-up: Binding of a rabbit serum to linear peptides / Binding of a rabbit serum to looped peptides / Rabbit serum linear peptides / Rabbit serum looped peptides / Binding of a rabbit serum to linear peptides of protein N of SARS-CoV Urbani (Rabbit serum linear peptides) / Binding of a rabbit serum to looped/cyclic peptides of protein N of SARS-CoV Urbani (Rabbit serum looped peptides): unit not given here

| Sequence | Binding of serum 1a to linear peptides of protein E of SARS-CoV Urbani [1] | Binding of serum 1a to looped/cyclic peptides of protein E of SARS-CoV Urbani [1] | Binding of serum 1b to linear peptides of protein E of SARS-CoV Urbani [1] | Binding of serum 1b to looped/cyclic peptides of protein E of SARS-CoV Urbani [1] | Binding of serum 2 to linear peptides of protein E of SARS-CoV Urbani [1] | Binding of serum 2 to looped/cyclic peptides of protein E of SARS-CoV Urbani [1] | Binding of serum 6 to linear peptides of protein E of SARS-CoV Urbani [1] | Binding of serum 6 to looped/cyclic peptides of protein E of SARS-CoV Urbani [1] | Binding of serum 37 to linear peptides of protein E of SARS-CoV Urbani [1] | Binding of serum 37 to looped/cyclic peptides of protein E of SARS-CoV Urbani [1] | Binding of serum 62 to linear peptides of protein E of SARS-CoV Urbani [1] | Binding of serum 62 to looped/cyclic peptides of protein E of SARS-CoV Urbani [1] | Binding of serum London to linear peptides of protein E of SARS-CoV Urbani [1] | Binding of serum London to looped/cyclic peptides of protein E of SARS-CoV Urbani [1] | Binding of serum SARS-green to linear peptides of protein E of SARS-CoV Urbani [1] | Binding of serum SARS-green to looped/cyclic peptides of protein E of SARS-CoV Urbani [1] | Binding of serum SARS-yellow to linear peptides of protein E of SARS-CoV Urbani [1] | Binding of serum SARS-yellow to looped/cyclic peptides of protein E of SARS-CoV Urbani [1] | Binding of Control Serum Blood-Bank to Looped peptides [2] | Binding of Control serum Blood-bank to linear peptides [2] | also measured |
| --- | --- | --- | --- | --- | --- | --- | --- | --- | --- | --- | --- | --- | --- | --- | --- | --- | --- | --- | --- | --- | --- |
| LLFLAFVVFLLVTLA | 0.8 | 0.7 | 0.6 | 0.4 | 0.5 | 0.6 | 0.7 | 0.4 | 0.7 | 0.7 | 0.7 | 0.7 | 0.5 | 0.4 | 0.4 | 0.4 | 0.2 | 0.7 | 0.5 | 0.6 | Binding of Control serum LUMC to linear peptides [2]: 0.4; Binding of Control serum LUMC to looped peptides [2]: 0.7; Binding of a rabbit serum to linear peptides [3]: 0.6; Binding of a rabbit serum to looped peptides [3]: 0.4 |
| VVFLLVTLAILTALR | 0.7 | 0.5 | 0.4 | 0.3 | 0.4 | 0.5 | 0.6 | 0.5 | 0.6 | 0.4 | 0.6 | 0.7 | 0.5 | 0.5 | 0.5 | 0.2 | 0.1 | 0.5 | 0.6 | 0.6 | Binding of Control serum LUMC to linear peptides [2]: 0.4; Binding of Control serum LUMC to looped peptides [2]: 0.6; Binding of a rabbit serum to linear peptides [3]: 0.5; Binding of a rabbit serum to looped peptides [3]: 0.2 |
| SVLLFLAFVVFLLVT | 0.8 | 0.6 | 0.7 | 0.5 | 0.5 | 0.5 | 0.9 | 0.4 | 0.8 | 0.6 | 0.7 | 0.6 | 0.5 | 0.4 | 0.5 | 0.6 | 0.3 | 0.6 | 0.6 | 0.7 | Binding of Control serum LUMC to linear peptides [2]: 0.5; Binding of Control serum LUMC to looped peptides [2]: 0.7; Binding of a rabbit serum to linear peptides [3]: 0.6; Binding of a rabbit serum to looped peptides [3]: 0.2 |
| FVVFLLVTLAILTAL | 0.6 | 0.4 | 0.4 | 0.4 | 0.5 | 0.4 | 0.3 | 0.6 | 0.4 | 0.5 | 0.3 | 0.6 | 0.5 | 0.4 | 0.5 | 0.4 | 0.2 | 0.6 | 0.7 | 0.5 | Binding of Control serum LUMC to linear peptides [2]: 0.5; Binding of Control serum LUMC to looped peptides [2]: 0.6; Binding of a rabbit serum to linear peptides [3]: 0.2; Binding of a rabbit serum to looped peptides [3]: 0.2 |
